Series [1] in a line: Measurement of absorption spectrum and fluorescence excitation spectrum. It counts as physicochemical. Conditions: for maximum absorption wavelength: 1.0 mg/ml, spectrophotometer 200 to 750 nm; for maximum excitation wavelength / maximum fluorescence wavelength: fluorescence spectrophotometer. On the procedure: Measurement of an absorption spectrum and a fluorescence excitation spectrum of Fast Green FCF was performed. The Fast Green FCF (Wako Pure Chemical Industries, Ltd.) was adjusted to 1.0 mg/ml, and the light absorbance was continuously measured at a wavelength of from 200 to 750 nm using a spectrophotometer (manufactured by Shimadzu Corp., BioSpec-1600) to determine the wavelength at which the absorbance reached the maximum. The maximum absorption wavelength of 628 nm thus obtained was irradiated as an excitation wavelength, and the wavelength of the scattered light detected in the perpendicular direction to the light axis of the excitation light was measured using a fluorescence spectrophotometer (manufactured by Shimadzu Corp., RF-1500), thus to obtain a maximum excitation wavelength of 628 nm and a maximum fluorescence wavelength of 652 nm.

Series [2] deals with esophagus part of a mouse. In words: Extracted esophagus stained, confocal microscope observation. Conditions: 10 mg/mL, pH 7. As for the experimental part: The esophagus part of a mouse (ddY, 11 weeks old, male) was extracted, stained using Brilliant Blue FCF, and observed with a confocal microscope (Leica Microsystems Corp., TCP-SP2).
The Brilliant Blue FCF used was prepared to 10 mg/mL using a 0.1 M sodium phosphate buffer solution (pH 7).
The imaging conditions were such that the pinhole diameter was 1.00 airy, and a lens of 20 magnifications was used.

In another series the test system is gastrointestinal lumen. The series is described as follows: Perfusion through the heart with Guinea Green, observation of a frozen section. The settings on record: 10 mg/mL, 600 μL perfused through the heart. It counts as in vivo, mouse. As for the experimental part:
The gastrointestinal lumen was stained using Guinea Green, and the stainability was examined by observation of a frozen section.
Guinea Green (Sigma-Aldrich Corp., Guinea Green B) was prepared to 10 mg/mL with physiological saline, and was perfused through the heart of a mouse (ddY, 6 weeks old, male) in an amount of 600 μL.
Also, it was compared with another frozen section used to perform HE staining, and the sites capable of fluorescent observation by Guinea Green staining were characterized.
(§1) A confocal microscope was used for the observation, which was made at 20, 40 or 63 magnifications.

The next series has as its system mouse large intestine. In words: Tissue staining by perfusion method, confocal observation of extracted large intestine specimen. Conditions: 1 mg/mL with physiological saline. On the procedure:
IndoCyanine Green (adjusted to 1 mg/mL with physiological saline), which is a medical contrast agent, was used to perform tissue staining. Mouse large intestine was stained by a perfusion method, and observation of an extracted specimen of the large intestine was performed using a confocal microscope (Leica Microsystems Corp., TCP-SP2).

Another series concerns large intestine. The series is described as follows: Perfusion through the heart with Patent Blue, confocal observation of large intestine specimen and frozen section. The series is classed as in vivo, mouse. On the procedure:
Patent Blue was used for staining and observation with a confocal microscope. Patent Blue (Sigma-Aldrich Corp., Patent Blue VF) was prepared to 10 mg/mL with physiological saline, and was perfused through the heart of a mouse (ddY, 6 weeks old, male) to perform staining.
The mouse was subjected to laparotomy to extract the large intestine, and an observation was made for a specimen with a confocal system.
The imaging conditions were such that a lens of 20 magnifications was used, and the pinhole diameter was 1.00 airy. As the confocal microscope, TCP-SP2 manufactured by Leica Microsystems Corp. was used.
A frozen section prepared by slicing the mouse large intestine stained in Example 9 to approximately 6 μm was observed under fluorescence to observe the stainability. An adjacent frozen section was used to perform HE staining and was compared to characterize the sites where fluorescent observation was possible by Patent Blue staining.
as §1

With `CCN(Cc1cccc(S(=O)(=O)O)c1)c1ccc(C(=C2C=CC(=[N+](CC)Cc3cccc(S(=O)(=O)O)c3)C=C2)c2ccccc2S(=O)(=O)[O-])cc1.N.N` [Alphazurine FG], in series [1], the “can be excited at, for example” value turned out to be 633 nm; the fluorescence detected at stood at 643 nm; the maximum absorption wavelength worked out at 630 nm; the maximum excitation wavelength is on record as 633 nm. Moreover, the maximum fluorescence wavelength in series [1] is given as 643 nm.

Turning to `CCN(Cc1cccc(S(=O)(=O)[O-])c1)c1ccc(C(=C2C=CC(=[N+](CC)Cc3cccc(S(=O)(=O)[O-])c3)C=C2)c2ccccc2S(=O)(=O)[O-])cc1.[Na+].[Na+]` [Brilliant Blue FCF], the “fluorescent contrast in confocal images” value in series [2] is “provide fluorescent contrast for the intercellular space of the esophagus epithelial cells”. The “depth from the luminal surface of clear images” value in series [2] (images at every 5.0 μm) is given as “up to 100 μm”. Besides, in series [1], the “can be excited at, for example” value is on record as 629 nm; the fluorescence detected at stood at 650 nm; the maximum absorption wavelength came to 629 nm; the maximum excitation wavelength is recorded as 619 nm. In series [1], this molecule registered a maximum fluorescence wavelength of 650 nm.

Take `CCN(Cc1cccc(S(=O)(=O)[O-])c1)c1ccc(C(=C2C=CC(=[N+](CC)Cc3cccc(S(=O)(=O)[O-])c3)C=C2)c2ccccc2)cc1.[Na+]` [Guinea Green B]: in the series with gastrointestinal lumen, the “fluorescence of frozen section” value is reported as “the lumen side exhibited strong fluorescence” and the “observation capability of the confocal system” value is recorded as “high”. In series [1], the “can be excited at, for example” value stood at 624 nm; the fluorescence detected at stood at 635 nm; the maximum absorption wavelength was 620 nm; the maximum excitation wavelength is 624 nm. This molecule came in with a maximum fluorescence wavelength in series [1] of 635 nm.

As for `CC1(C)C(/C=C/C=C/C=C/C=C2\N(CCCCS(=O)(=O)O)c3ccc4ccccc4c3C2(C)C)=[N+](CCCCS(=O)(=O)[O-])c2ccc3ccccc3c21` [IndoCyanine Green, reference compound], the “fluorescence intensity inside the tissue” value in the series on mouse large intestine is “the fluorescence intensity was very low”. Also, in series [1] (compared with Fast Green FCF, FIG. 2), the “fluorescence intensity (fluorescence spectrum)” value is “the fluorescence intensity is lower than that of the Fast Green FCF”.

With `CCN(Cc1cccc(S(=O)(=O)O)c1)c1ccc(C(=C2C=CC(=[N+](CC)Cc3cccc(S(=O)(=O)O)c3)C=C2)c2ccc(S(=O)(=O)O)cc2)cc1.[Na+].[Na+]` [Light Green SF], in series [1], the “can be excited at, for example” value was determined as 633 nm; the fluorescence detected at amounted to 652 nm; the maximum absorption wavelength was determined as 635 nm; the maximum excitation wavelength is 633 nm. This molecule had a maximum fluorescence wavelength in series [1] of 652 nm.

For Patent Blue VF, in the series with large intestine (10 mg/mL, 600 μL perfused through the heart), the “staining visible by naked eyes” value is recorded as “the limbs were bluish in color to the extent of being visible by naked eyes”. Moreover, the “fluorescence of frozen section” value in the series on large intestine (approximately 6 μm frozen section) is listed as “strong fluorescence in the lumen”. For the same molecule, the “confocal observation of the tissue” value in the series with large intestine (area 60 μm deep from the luminal surface) is listed as “the lamina propria mucosae could be observed clear”. The observation capability entry with large intestine (frozen section under fluorescence) is recorded as “high”. In addition, in series [1], the “can be excited at, for example” value is 641 nm; the fluorescence detected at is recorded as 654 nm; the maximum absorption wavelength came out at 639 nm; the maximum excitation wavelength is 641 nm. The same molecule showed a maximum fluorescence wavelength in series [1] of 654 nm.

The record behind these values is patent US20080045796A1, “HISTOFLUORESCENT STAIN COMPOSITION FOR ENDOSCOPY” (PENTAX CORPORATION, priority 2006, published 2008).
